Source: the supplement of paper PMC10307832

Assays:
Experiment in all cases: relative viability (nuclei count vs DMSO), 5 days (fraction); higher = more cells survive
[1] = compound: CN(C)CC1=CC(=CC=C1)N=C(C2=CC=CC=C2)C3=C(NC4=C3C=CC(=C4)C(=O)N(C)C)O
How it was run: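 Following overnight incubation at 37 °C, lung cancer cell lines in 1536-well plates were pinned with five library-drug doses (not always all listed) in √10 steps on vehicle-anchored plates. The cells then spent 5 days without medium change before a combined fix, permeabilisation and Hoechst stain, 4× imaging and MetaXpress nuclear counts. Viability is the treated-to-vehicle ratio of nuclei, taken as the median across plates. Only plates with control CV below 25% and at least one doubling passed.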

[2] = compound: CN(C)CC1=CC(=CC=C1)N=C(C2=CC=CC=C2)C3=C(NC4=C3C=CC(=C4)C(=O)N(C)C)O + CC(=O)c1c(C)c2cnc(Nc3ccc(N4CCNCC4)cn3)nc2n(C2CCCC2)c1=O [Palbociclib] (partner 0.5 µM)
How it was run: (§1)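 Relative viability equals treated-well nuclei counts divided by vehicle-well nuclei counts. Counts came from 4× images of lung cancer cell lines grown in 1536-well plates for 5 days after pin-tool dosing on the day after seeding. Dosing used one drug alone or a fixed anchor-drug dose plus five library-drug doses (not always all listed) in √10 steps, and values are medians of duplicate plates.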

[3] = compound: CN(C)CC1=CC(=CC=C1)N=C(C2=CC=CC=C2)C3=C(NC4=C3C=CC(=C4)C(=O)N(C)C)O + COc1cc2c(Oc3ccc(NC(=O)C4(C(=O)Nc5ccc(F)cc5)CC4)cc3F)ccnc2cc1OCCCN1CCOCC1 [Foretinib] (partner 0.25 µM)
How it was run: as §1

[4] = compound: CN(C)CC1=CC(=CC=C1)N=C(C2=CC=CC=C2)C3=C(NC4=C3C=CC(=C4)C(=O)N(C)C)O + COc1cccc2cc(-c3nc([C@H]4CC[C@H](C(=O)O)CC4)n4ncnc(N)c34)[nH]c12 [OSI-027] (partner 0.5 µM)
How it was run: as §1

NCI-H1666 was tested, and the relative viability ([1]; 0.08 µM) was 1.07, the relative viability ([1]; 0.253 µM) was 0.994 and the relative viability ([1]; 0.8 µM) was 0.959. The relative viability ([1]; 2.53 µM) was 1.11, the relative viability ([1]; 8 µM) was 1.12 and the relative viability ([2]; first compound 0.08 µM) was 0.617. The relative viability ([2]; first compound 0.253 µM) was 0.652, the relative viability ([2]; first compound 0.8 µM) was 0.684 and the relative viability ([2]; first compound 2.53 µM) was 0.681. It also gave a relative viability ([2]; first compound 8 µM) of 0.73, a relative viability ([3]; first compound 0.08 µM) of 1.03 and a relative viability ([3]; first compound 0.253 µM) of 1.01. The relative viability ([3]; first compound 0.8 µM) was 1, the relative viability ([3]; first compound 2.53 µM) was 1 and the relative viability ([3]; first compound 8 µM) was 1.11. It also gave a relative viability ([4]; first compound 0.08 µM) of 0.858, a relative viability ([4]; first compound 0.253 µM) of 0.851 and a relative viability ([4]; first compound 0.8 µM) of 0.889. It also gave a relative viability ([4]; first compound 2.53 µM) of 0.831 and a relative viability ([4]; first compound 8 µM) of 1.05.

NCI-H1734 showed a relative viability ([1]; 0.08 µM) of 1.1, a relative viability ([1]; 0.253 µM) of 1.05 and a relative viability ([1]; 0.8 µM) of 1.04. It also gave a relative viability ([1]; 2.53 µM) of 0.962, a relative viability ([1]; 8 µM) of 0.824 and a relative viability ([2]; first compound 0.08 µM) of 0.39. The relative viability ([2]; first compound 0.253 µM) was 0.353, the relative viability ([2]; first compound 0.8 µM) was 0.346 and the relative viability ([2]; first compound 2.53 µM) was 0.31. The relative viability ([2]; first compound 8 µM) was 0.31, the relative viability ([3]; first compound 0.08 µM) was 0.765 and the relative viability ([3]; first compound 0.253 µM) was 0.839. It also gave a relative viability ([3]; first compound 0.8 µM) of 0.819, a relative viability ([3]; first compound 2.53 µM) of 0.771 and a relative viability ([3]; first compound 8 µM) of 0.807. The relative viability ([4]; first compound 0.08 µM) was 0.599, the relative viability ([4]; first compound 0.253 µM) was 0.6 and the relative viability ([4]; first compound 0.8 µM) was 0.56. For the same cell line, the relative viability ([4]; first compound 2.53 µM) was 0.561 and the relative viability ([4]; first compound 8 µM) was 0.577.

For NCI-H1755, the relative viability ([1]; 0.08 µM) was 0.981, the relative viability ([1]; 0.253 µM) was 0.967 and the relative viability ([1]; 0.8 µM) was 0.971. For the same cell line, the relative viability ([1]; 2.53 µM) was 0.983, the relative viability ([1]; 8 µM) was 0.987 and the relative viability ([2]; first compound 0.08 µM) was 0.438. It also gave a relative viability ([2]; first compound 0.253 µM) of 0.45, a relative viability ([2]; first compound 0.8 µM) of 0.426 and a relative viability ([2]; first compound 2.53 µM) of 0.452. It also gave a relative viability ([2]; first compound 8 µM) of 0.439, a relative viability ([3]; first compound 0.08 µM) of 0.941 and a relative viability ([3]; first compound 0.253 µM) of 0.903. For the same cell line, the relative viability ([3]; first compound 0.8 µM) was 0.989, the relative viability ([3]; first compound 2.53 µM) was 0.874 and the relative viability ([3]; first compound 8 µM) was 0.918. For the same cell line, the relative viability ([4]; first compound 0.08 µM) was 0.707, the relative viability ([4]; first compound 0.253 µM) was 0.7 and the relative viability ([4]; first compound 0.8 µM) was 0.798. It also gave a relative viability ([4]; first compound 2.53 µM) of 0.773 and a relative viability ([4]; first compound 8 µM) of 0.622.

NCI-H1793 was tested, and the relative viability ([1]; 0.08 µM) was 1.01, the relative viability ([1]; 0.253 µM) was 1.07 and the relative viability ([1]; 0.8 µM) was 0.773. For the same cell line, the relative viability ([1]; 2.53 µM) was 1.05, the relative viability ([1]; 8 µM) was 0.839 and the relative viability ([2]; first compound 0.08 µM) was 0.27. The relative viability ([2]; first compound 0.253 µM) was 0.363, the relative viability ([2]; first compound 0.8 µM) was 0.326 and the relative viability ([2]; first compound 2.53 µM) was 0.329. For the same cell line, the relative viability ([2]; first compound 8 µM) was 0.351, the relative viability ([3]; first compound 0.08 µM) was 0.745 and the relative viability ([3]; first compound 0.253 µM) was 0.66. It also gave a relative viability ([3]; first compound 2.53 µM) of 0.734, a relative viability ([3]; first compound 8 µM) of 0.621 and a relative viability ([4]; first compound 0.08 µM) of 0.29. For the same cell line, the relative viability ([4]; first compound 0.253 µM) was 0.299, the relative viability ([4]; first compound 2.53 µM) was 0.329 and the relative viability ([4]; first compound 8 µM) was 0.196.

Work on NCI-H1915 yielded a relative viability ([1]; 0.08 µM) of 1.01, a relative viability ([1]; 0.253 µM) of 0.986 and a relative viability ([1]; 0.8 µM) of 1.07. For the same cell line, the relative viability ([1]; 2.53 µM) was 1.01, the relative viability ([1]; 8 µM) was 0.992 and the relative viability ([2]; first compound 0.08 µM) was 0.533. The relative viability ([2]; first compound 0.253 µM) was 0.528, the relative viability ([2]; first compound 0.8 µM) was 0.555 and the relative viability ([2]; first compound 2.53 µM) was 0.537. For the same cell line, the relative viability ([2]; first compound 8 µM) was 0.48, the relative viability ([3]; first compound 0.08 µM) was 1.03 and the relative viability ([3]; first compound 0.253 µM) was 1.06. For the same cell line, the relative viability ([3]; first compound 0.8 µM) was 1.13, the relative viability ([3]; first compound 2.53 µM) was 1.12 and the relative viability ([3]; first compound 8 µM) was 1.05. It also gave a relative viability ([4]; first compound 0.08 µM) of 0.635, a relative viability ([4]; first compound 0.253 µM) of 0.643 and a relative viability ([4]; first compound 0.8 µM) of 0.71. For the same cell line, the relative viability ([4]; first compound 2.53 µM) was 0.659 and the relative viability ([4]; first compound 8 µM) was 0.575.

NCI-H1944 gave a relative viability ([1]; 0.08 µM) of 0.956, a relative viability ([1]; 0.253 µM) of 1.03 and a relative viability ([1]; 0.8 µM) of 0.892. It also gave a relative viability ([1]; 2.53 µM) of 0.903, a relative viability ([1]; 8 µM) of 0.823 and a relative viability ([2]; first compound 0.08 µM) of 0.32. For the same cell line, the relative viability ([2]; first compound 0.253 µM) was 0.344, the relative viability ([2]; first compound 0.8 µM) was 0.282 and the relative viability ([2]; first compound 2.53 µM) was 0.357. It also gave a relative viability ([2]; first compound 8 µM) of 0.33, a relative viability ([3]; first compound 0.08 µM) of 0.888 and a relative viability ([3]; first compound 0.253 µM) of 0.923. It also gave a relative viability ([3]; first compound 0.8 µM) of 0.877, a relative viability ([3]; first compound 2.53 µM) of 0.86 and a relative viability ([3]; first compound 8 µM) of 0.785. The relative viability ([4]; first compound 0.08 µM) was 0.447, the relative viability ([4]; first compound 0.253 µM) was 0.491 and the relative viability ([4]; first compound 0.8 µM) was 0.4. For the same cell line, the relative viability ([4]; first compound 2.53 µM) was 0.355 and the relative viability ([4]; first compound 8 µM) was 0.348.

With NCI-H1975 the relative viability ([1]; 0.08 µM) was 0.955, the relative viability ([1]; 0.253 µM) was 0.915 and the relative viability ([1]; 0.8 µM) was 0.85. The relative viability ([1]; 2.53 µM) was 0.926, the relative viability ([1]; 8 µM) was 0.789 and the relative viability ([2]; first compound 0.08 µM) was 0.646. For the same cell line, the relative viability ([2]; first compound 0.253 µM) was 0.398, the relative viability ([2]; first compound 0.8 µM) was 0.456 and the relative viability ([2]; first compound 2.53 µM) was 0.574. The relative viability ([2]; first compound 8 µM) was 0.339, the relative viability ([3]; first compound 0.08 µM) was 0.863 and the relative viability ([3]; first compound 0.253 µM) was 0.984. It also gave a relative viability ([3]; first compound 0.8 µM) of 0.888, a relative viability ([3]; first compound 2.53 µM) of 0.88 and a relative viability ([3]; first compound 8 µM) of 0.78. The relative viability ([4]; first compound 0.08 µM) was 0.747, the relative viability ([4]; first compound 0.253 µM) was 0.0592 and the relative viability ([4]; first compound 0.8 µM) was 0.675. For the same cell line, the relative viability ([4]; first compound 2.53 µM) was 0.747 and the relative viability ([4]; first compound 8 µM) was 0.585.

NCI-H1993 was tested, and the relative viability ([1]; 0.08 µM) was 0.979, the relative viability ([1]; 0.253 µM) was 0.98 and the relative viability ([1]; 0.8 µM) was 0.717. It also gave a relative viability ([1]; 2.53 µM) of 0.944, a relative viability ([1]; 8 µM) of 1.07 and a relative viability ([2]; first compound 0.08 µM) of 0.63. It also gave a relative viability ([2]; first compound 0.253 µM) of 0.615, a relative viability ([2]; first compound 2.53 µM) of 0.75 and a relative viability ([2]; first compound 8 µM) of 0.592. It also gave a relative viability ([3]; first compound 0.08 µM) of 0.721, a relative viability ([3]; first compound 0.253 µM) of 0.811 and a relative viability ([3]; first compound 0.8 µM) of 0.81. It also gave a relative viability ([3]; first compound 2.53 µM) of 0.824, a relative viability ([3]; first compound 8 µM) of 0.935 and a relative viability ([4]; first compound 0.08 µM) of 0.529. The relative viability ([4]; first compound 0.253 µM) was 0.581, the relative viability ([4]; first compound 0.8 µM) was 0.567 and the relative viability ([4]; first compound 2.53 µM) was 0.531. The relative viability ([4]; first compound 8 µM) was 0.598.
